Test results from patent EP0184322A1, “Benzimidazoles” (SMITH KLINE & FRENCH LABORATORIES LIMITED, priority 1984, dated 1986).

Tested on: histamine stimulated gastric acid secretion
Assay: Rat lumen perfused stomach (modified Ghosh and Schild procedure)
Format: in vivo
Excerpt: Using a modification of the procedure described by Ghosh and Schild (Br. J. Pharmacology, 13, 54, 1958), ED . values after either intraduodenal (i.d) or intravenous (i.v) administration were obtained as follows: […]

[1] = i.d. (intraduodenal) administration

| Compound | ED50 (iv, i.v. administration) [µmol/kg] | ED50 [1] [µmol/kg] |
| --- | --- | --- |
| COc1ccc2[nH]c([S+]([O-])Cc3nccc(N4CCOCC4)c3Cl)nc2c1 (stereo not drawn) [Example 4, 2-(4-morpholino-3-chloro-2-pyridylmethyl-sulphinyl)-5-methoxy-(1 H)-benzimidazole] | 1.17 |  |
| COc1ccc2[nH]c([S+]([O-])Cc3ncc(C)c(N4CCCC4)c3Cl)nc2c1 (stereo not drawn) [Example 14, 2-(4-pyrrolidino-3-chloro-5-methyl-2-pyridylmethylsulphinyl)-5-methoxy-(1 H)-benzimidazole] | 0.82 |  |
| COc1ccc2[nH]c([S+]([O-])Cc3cc(N)c(Br)cn3)nc2c1 (stereo not drawn) [Example 2, 2-(4-amino-5-bromo-2-pyridylmethylsulphinyl)-5-methoxy-(1-H)-benzimidazole] | 1.46 |  |
| COc1ccc2[nH]c([S+]([O-])Cc3ncc(C)c(N4CCOCC4)c3Cl)nc2c1 (stereo not drawn) [Example 6, 2-(4-morpholino-3-chloro-5-methyl-2-pyridylmethylsulphinyl)--5-methoxy-(1H)-benzimidazole] |  | 1.94 |
| COc1ccc2[nH]c([S+]([O-])Cc3ncc(C)c(N4CCCCC4)c3Cl)nc2c1 (stereo not drawn) [Example 8, 2-(4-piperidino-3-chloro-5-methyl-2-pyridylmethylsulphinyl)--5-methoxy-(1H)-benzimidazole] |  | 2.38 |
| COc1ccc2[nH]c([S+]([O-])Cc3ncc(Br)c(N4CCCCC4)c3C)nc2c1 (stereo not drawn) [Example 22, 2-(4-piperidino-5-bromo-3-methyl-2-pyridylmethylsulphinyl)--5-methoxy-(1 H)-benzimidazole] |  | 4.55 |
| COc1ccc2[nH]c([S+]([O-])Cc3ncc(C)c(N(C)C)c3Cl)nc2c1 (stereo not drawn) [Example 16, 2-(4-dimethylamino-3-chloro-5-methyl-2-pyridylmethylsulphi-nyl)-5-methoxy-(1H)-benzimidazole] |  | 1.46 |
| COc1ccc2[nH]c([S+]([O-])Cc3cc(N4CCCCC4)c(Br)cn3)nc2c1 (stereo not drawn) [Example 18, 2-(4-piperidino-5-bromo-2-pyridylmethylsulphinyl) - 5-methoxy-(1 H)-benzimidazole] | 0.85 |  |
| COc1ccc2[nH]c([S+]([O-])Cc3nccc(N4CCCCC4)c3Br)nc2c1 (stereo not drawn) [Example 20, 2-(4-piperidino-3-bromo-2-pyridylmethylsulphinyl) - 5-methoxy-(1H)-benzimidazole] | 0.86 |  |
